The text below walks through data of patent publication US8658649B2, “Kinase inhibitor” (Sanofi, priority 2006, dated 2014).

For this assay, the system named is Collagen-induced arthritis (CIA). The experiment in a line: Rat collagen induced arthritis, combination dosing with Methotrexate. The assay is classed as in vivo. Here is the method: Immunization and Challenge: Female Lewis rats were immunized on day 0 and challenged on day 7 with cII from bovine nasal mixed with Freund's incomplete adjuvant at a final collagen concentration of 1.0 mg/ml. The animals were injected at the base of the tail with 400 μg of cII. Combination Dosing Regimen: Rats were dosed with the compound of Formula I (3.0 and 10 mg/kg, p.o., bi.d.) or Methotrexate (MTX, 0.1 and 0.2 mg/kg, p.o., q.d.) as monotherapy or in combinations consisting of each dose of the compound of Formula I with each dose of MTX starting on day 6 and continuing through day 21. Joint Pathology Ankle joint swelling was measured to the nearest 0.01 mm by using electronic digital calipers. Measurements were recorded 7 times throughout the study starting on day 6 and ending on day 21. Body weights were recorded on the same days. On day 21, hind paws were removed at the hairline just above the ankle and fixed in 10% neutral buffered formalin. MicroCT analysis: Ankle joints were examined using a cone-beam μCT scanner. A scout view scan was obtained first for selection of the examination volume of the specimens, followed by positioning, measurement and computational reconstruction. In ankle joints, the ratio of bone surface to bone volume, describing the complexity of bone surface in a certain volume, was analyzed. Statistical Analysis For joint swelling/inflammation, data were analyzed using Everstat v.5 software and a 2-way repeated measure ANOVA with Dunnett's post test. MicroCT data were analyzed by Everstat using a 1-way ANOVA and Newman-Keuls multiple comparison test.

Structures are written as SMILES.

As for `CN(Cc1cnc2nc(N)nc(N)c2n1)c1ccc(C(=O)N[C@@H](CCC(=O)O)C(=O)O)cc1` [MTX, Methotrexate, reference compound], the “bone erosion, MicroCT” value runs as follows: (MTX 0.1 mg/kg monotherapy) “effect was not seen”; (MTX 0.2 mg/kg po qd monotherapy) “significant decrease in bone erosion”.
